From patent US9227935B2, “Piperidine/piperazine derivatives” (Janssen Pharmaceutica N.V., priority 2007, dated 2016)

Legend:
human DGAT1 = target: T1, human DGAT1 (Homo sapiens, UniProt O75907); assay: DGAT1 FlashPlate inhibition assay with DGAT1 membrane preparations; assay type: biochemical; details: IC50 values expressed in M; pIC50 = -logIC50; inhibition of DGAT1 activity
T1 construct: FLAG (N); made in house; host or cells: SF9 insect cells (baculovirus, pFastBac); total cell membranes used as the enzyme source
T1 sequence (O75907 1-488): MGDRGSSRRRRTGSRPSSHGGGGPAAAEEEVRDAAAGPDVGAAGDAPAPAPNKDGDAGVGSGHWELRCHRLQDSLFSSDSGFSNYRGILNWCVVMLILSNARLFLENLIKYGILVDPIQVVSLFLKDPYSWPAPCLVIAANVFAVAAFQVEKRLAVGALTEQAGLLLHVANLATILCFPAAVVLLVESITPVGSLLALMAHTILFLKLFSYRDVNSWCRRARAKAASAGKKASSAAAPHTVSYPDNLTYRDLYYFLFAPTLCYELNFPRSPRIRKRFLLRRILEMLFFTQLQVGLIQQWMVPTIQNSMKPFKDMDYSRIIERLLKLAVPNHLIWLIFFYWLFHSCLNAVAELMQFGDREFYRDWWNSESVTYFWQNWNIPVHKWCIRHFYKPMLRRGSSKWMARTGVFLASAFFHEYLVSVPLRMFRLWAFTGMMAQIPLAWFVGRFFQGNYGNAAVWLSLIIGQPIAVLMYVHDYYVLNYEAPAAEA
How it was run: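 Membranes from Sf9 cells expressing N-FLAG human DGAT1 were incubated 120 min at 37 °C with 50 μM DAG in PC/PS micelles and 8.4 μM [3H]-oleoylCoA in Tris pH 7.4, MgCl2, EDTA and 0.2% BSA. The reaction was stopped with N-ethylmaleimide, and triacylglycerol was read by FlashPlate radioluminescence and normalised to enzyme and no-enzyme controls.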

SMILES | IC50 (human DGAT1) [nM] | melting point [°C]
O=C(Nc1ccc(N2CCN(C(=O)Oc3c(Cl)cccc3Cl)CC2)cc1)c1cccc(N2CCCC2)c1 [Compound 139] | 6.46 | 212.69
O=C(Nc1ccc(N2CCN(C(=S)Nc3c(Cl)cccc3Cl)CC2)cc1)c1ccccc1-c1ccc(C(F)(F)F)cc1 [Compound 8] | 214 | 224.5
CN1CCN(C(=O)Cc2cc(Cl)c(NC(=O)N3CCN(c4ccc(NC(=O)c5cccc(N6CCCC6)c5)cc4)CC3)c(Cl)c2)CC1 [Compound 136] | 1.82 | 254.77
COC(=O)c1cccc(C(=O)Nc2ccc(N3CCN(C(=O)Nc4c(Cl)cc(CN5CCCC5)cc4Cl)CC3)cc2)c1 [Compound 140] | 12.6 | 247.52
O=C(Nc1ccc(N2CCN(C(=O)Nc3c(Cl)cccc3Cl)CC2)cc1)c1ccccc1-c1ccc(C(F)(F)F)cc1 [Compound 9] | 30.2 | 289
Cc1nc(C(=O)Nc2ccc(N3CCN(C(=O)Nc4c(Cl)cccc4Cl)CC3)cc2)c(-c2cccc(C(F)(F)F)c2)s1 [Compound 65] | 204 | –
O=C(Nc1ccc(N2CCN(C(=O)Nc3c(Cl)cccc3Cl)CC2)cc1)c1ccccc1-c1nc2ccccc2[nH]1 [Compound 45] | 56.2 | –
Cc1ccccc1-c1cccc(C(=O)Nc2ccc(N3CCN(C(=O)Nc4c(Cl)cccc4Cl)CC3)cc2)c1 [Compound 36] | 1.74 | –
O=C(Nc1ccc(N2CCN(C(=O)Nc3c(Cl)cccc3Cl)CC2)cc1)c1ccc(-c2cc[nH]n2)cc1 [Compound 25] | 70.8 | –
COc1cccc(OC)c1NC(=O)N1CCC(c2ccc(NC(=O)c3ccccc3-c3ccc(C(F)(F)F)cc3)cc2)CC1 [Compound 111] | 4570 | –
Cc1cc(C)c(NC(=O)N2CCN(c3ccc(NC(=O)c4ccccc4-c4ccc(C(F)(F)F)cc4)cc3)CC2)c(Br)c1 [Compound 103] | 200 | –
O=C(Nc1ccc(N2CCN(C(=O)Nc3ccccc3Oc3ccccc3)CC2)cc1)c1ccccc1-c1ccc(C(F)(F)F)cc1 [Compound 105] | 3310 | –
Cc1cccc(C(=O)Nc2ccc(C3CCN(C(=O)Nc4c(Cl)cccc4Cl)CC3)cc2)c1-c1ccc(C(F)(F)F)cc1 [Compound 59] | 2040 | –
O=C(Nc1ccc(N2CCN(C(=O)c3c(Cl)cccc3Cl)CC2)cc1)c1ccccc1-c1ccc(C(F)(F)F)cc1 [Compound 6] | 9120 | –
CC(C)N(Cc1cc(Cl)c(NC(=O)N2CCN(c3ccc(NC(=O)c4cccc(N5CCCC5)c4)cc3)CC2)c(Cl)c1)C(C)C [Compound 137] | 4.17 | 270.85
O=C(Nc1ccc(C2=CCN(C(=O)NCc3ccccc3)CC2)cc1)c1ccccc1-c1ccc(C(F)(F)F)cc1 [Compound 121] | 4900 | –
CCc1ccccc1NC(=O)N1CCC(c2ccc(NC(=O)c3ccccc3-c3ccc(C(F)(F)F)cc3)cc2)CC1 [Compound 108] | 4470 | –
Cc1cccc([N+](=O)[O-])c1NC(=O)N1CCN(c2ccc(NC(=O)c3ccccc3-c3ccc(C(F)(F)F)cc3)cc2)CC1 [Compound 95] | 407 | –
O=C(Nc1ccc(N2CCN(C(=O)Nc3c(Cl)cccc3Cl)CC2)cc1)c1ccccc1-c1ccccc1 [Compound 34] | 20.4 | –
Cc1nc(C(=O)Nc2ccc(C3CCN(C(=O)Nc4c(Cl)cccc4Cl)CC3)cc2)c(-c2ccc(C(C)C)cc2)s1 [Compound 3] | 1170 | –
Cc1n[nH]c(C)c1-c1ccccc1C(=O)Nc1ccc(N2CCN(C(=O)Nc3c(Cl)cccc3Cl)CC2)cc1 [Compound 26] | 398 | –
C=CCNC(=O)N1CCC(c2ccc(NC(=O)c3ccccc3-c3ccc(C(F)(F)F)cc3)cc2)CC1 [Compound 107] | 2450 | –
O=C(Nc1ccc(N2CCN(C(=O)Nc3c(Cl)cc(Cl)cc3Cl)CC2)cc1)c1ccccc1-c1ccc(C(F)(F)F)cc1 [Compound 99] | 1820 | –
O=C(Nc1ccc(N2CCN(C(=O)NCC3CCCCC3)CC2)cc1)c1ccccc1-c1ccc(C(F)(F)F)cc1 [Compound 5] | 7590 | –
O=C(Nc1ccc(N2CCN(C(=S)Nc3ccc(Cl)cc3Cl)CC2)cc1)c1ccccc1-c1ccc(C(F)(F)F)cc1 [Compound 68] | 7240 | –
O=C(Nc1ccc(C2CCN(C(=O)Nc3c(Cl)cccc3Cl)CC2)cc1)C1CNC1 [Compound 46] | 2400 | –
Cc1ccccc1NC(=O)N1CCN(c2ccc(NC(=O)c3ccccc3-c3ccc(C(F)(F)F)cc3)cc2)CC1 [Compound 74] | 1100 | –
O=C(Nc1ccc(N2CCN(C(=O)Nc3c(Cl)cccc3Cl)CC2)cc1)c1ccc(-c2cnco2)cc1 [Compound 15] | 12.9 | –
